The text below walks through data of patent USRE39707E1, “Camptothecin derivatives” (Catholic Healthcare West, priority 2001, dated 2007).

One data set relates to VM46. As to the kind of experiment: Cell colony formation assay, VM46 cells. In kind it is cell-based. Particulars: 72 hours drug exposure. As to the method: (§1) This example provides directions for growing cells and testing compounds of the invention for their effect on the growth of the cells. All cells were purchased from DCIDC Tumor Repository, NCI, NIH.
(§2) Four hundred cells (HCT 116, PC-3, NCI/ADR-RES: human breast cancer cells) or five hundred cells (VM46) were plated in 60 mm Petri dishes containing 2.7 ml of medium (modified McCoy's 5a medium) containing 10% fetal bovine serum and 100 units/ml penicillin and 100 mg/ml streptomycin. The cells were incubated in a CO2 incubator at 37° C. for 5 hours for attachment to the bottom of Petri dishes. Drugs were made fresh in medium at ten times the final concentration, and then 0.3 ml of this stock solution was added to the 2.7 ml of medium in the dish. The cells were then incubated with drugs for 72 hours at 37° C. At the end of the incubation the drug-containing media were decanted, the dishes were rinsed with 4 ml of Hank's Balance Salt Solution (HBSS), 5 ml of fresh medium was added, and the dishes were returned to the incubator for colony formation. The cell colonies were counted using colony counter after incubation for 7 days for HCT116 cells and PC-3 cells and 8 days for VM46 cells, respectively.
(§3) Values of ID50 (the drug concentration producing 50% inhibition of colony formation) may be determined for each tested compound. The directions described in this example may be used in other cells, such as DU-145.

For another data set, the system named is PC-3. Nature of the data set: Cell colony formation assay, PC-3 cells. In kind it is cell-based, human. Particulars: 72 hours drug exposure. The protocol:
as §1, §2, §3

Another data set has as its system HCT116. As to the kind of experiment: Cell colony formation assay, HCT116 cells. It counts as cell-based, human. Particulars: 72 hours drug exposure. As to the method: as §1
as §2, with “The” for “Four hundred cells (HCT 116, PC-3, NCI/ADR-RES: human breast cancer cells) or five hundred cells (VM46) were plated in 60 mm Petri dishes containing 2.7 ml of medium (modified McCoy's 5a medium) containing 10% fetal bovine serum and 100 units/ml penicillin and 100 mg/ml streptomycin. The”

In a further data set the test system is C3H/HeJ mice. Particulars: maximum tolerated dose at day 40, C3H/HeJ mice. As to the method: This example provides directions for performing in vivo toxicity tests of the compounds of the invention on C3H/HeJ mice.
Acute toxicities of the compounds of this invention are evaluated on C3H/HeJ mice (body weight 18-22 g). The MTD40 (maximum tolerated dose at day 40) values were determined by the standard procedure described by Gad and Chengelis (see, for example, “Acute Toxicology Testing,” 2nd Ed., Shayne O. Gad and Christopher P. Chengelis, pp. 186-195 (Academic Press)). In the consecutive type studies, 2 mice were dosed at low and moderate doses of 40 and 100 mg/kg. If no severe and irreversible toxicity (euthanasia is required) occurs at these doses, a new pair of animals was initiated at 180 mg/kg, which is 1.8 times higher than 100 mg/kg. Sequential dosages (about 3 doses on 3 pairs of animals, i.e. 2 mice for each drug dose) were increased by a factor of 1.8 until severe and irreversible toxicity (euthanasia is required) occurred. Then another pair of animals was initiated at the highest nonlethal dosage, and successive dosages were increased by a factor of 1.15. The result of this exercise was two dosages, one apparently nonlethal and the other lethal if severe and irreversible toxicity occurs and euthanasia is required, separated by a factor of 1.15. Six mice were dosed at each dosage. If no severe and irreversible toxicity occurred at the lower dosage and at least one with severe and irreversible toxicity occurred at the higher dose, then the lower dose was considered to be the MTD. The compounds of this invention were administered to C3H/HeJ mice by intraperitoneal injection. Drug toxicity was evaluated on mice checked daily for 45 days.

Data set [1] deals with MTG-B mouse mammary Adenocarcinoma. As to the kind of experiment: In vivo efficacy in C3H/HeJ mice bearing MTG-B tumors. Particulars: for T (Surviving days after treatment of MTG-B mouse mammary Adenocarcinoma In C3H/Hej mice): i.p., control mice survived 6 days; for CD/Taxol: ratio of extra days of survival with compound to extra days of survival with taxol, each compared to control; for T/C %: surviving days treated / surviving days control x 100%, control 6 days. As to the method:
This example provides directions for performing in vivo efficacy tests of the compounds of the invention on C3H/HeJ mice bearing MTG-B tumors.
Studies on the compounds of this invention were performed on C3H/HeJ mice bearing […] tumors. […] Treatment was initiated at that time, with the first day of treatment designated as day 0 for calculation and plots. The mice were injected i.p. with thee drug dose levels (⅓, ½, 1×MTD) using both a single injection and the schedule of Q2D×3 (every 2 days for a total of 3 treatments at ⅓ MTD). Control groups of mice bearing 8 mm diameter tumors were treated with vehicle alone. […] When a tumor reached 1.5 g, the mouse bearing the tumor was euthanized. Surviving days measured from day 0 for mice treated with anticancer drugs (T) and surviving days measured from day 0 for control mice (C) were recorded. Tumor growth inhibition values (T/C %) were calculated using the formula T/C %=(surviving days of mice treated with an anticancer drug T/surviving days of control mice C)×100%, as shown in Table II.
The final right-hand column in Table II provides a ratio of the extra days of survival of mice treated with the compounds of the invention (compared to control) to the extra days of survival of mice treated with taxol (compared to control).

As for `CCC1(OC(=O)COc2ccccc2[N+](=O)[O-])C(=O)OCc2c1cc1n(c2=O)Cc2cc3ccccc3nc2-1` (centres unmarked) [Example 000411, Camptothecin-20-O-ester of 2-nitrophenoxyacetic acid], the results for the “In vitro efficacy: Survival (%) of cells line VM46” value in the data set with VM46 (1 nM) and in the data set on VM46 (10 nM) were 76.87% and 0%, respectively. Moreover, the “In vitro efficacy: Survival (%) of cells line PC-3” value is 90.09% in the data set on PC-3 (1 nM) and 33.09% in the data set on PC-3 (5 nM). The “In Vitro Efficacy: Survival (%) of HCT116” value with HCT116 (1 nM) is on record as 95.13%; in the data set with HCT116 (10 nM), 0%; in the data set on HCT116 (100 nM), 0%. For the same compound, the “In Vivo Toxicity MTD40 (ip, mg/kg) in C3H/Hej Mice” value in the data set on C3H/HeJ mice is listed as above 150 mg/kg. Besides, the “T (Surviving days after treatment of MTG-B mouse mammary Adenocarcinoma In C3H/Hej mice)” value in data set [1] is 8 days. Also, the CD/Taxol result in data set [1] is “.7”. This compound returned a T/C % in data set [1] of 133%.

In the case of `CCC1(OC(=O)COc2cccc(Cl)c2Cl)C(=O)OCc2c1cc1n(c2=O)Cc2cc3ccccc3nc2-1` (centres unmarked) [Example 000412, Camptothecin-20-O-ester of 2,3-dichlorophenoxyacetic acid], the figures for the “In vitro efficacy: Survival (%) of cells line VM46” value in the data set on VM46 (1 nM) and in the data set with VM46 (10 nM) were 50.72% and 0%, respectively. Moreover, the “In vitro efficacy: Survival (%) of cells line PC-3” value in the data set on PC-3 (1 nM) is recorded as 83.00%; with PC-3 (5 nM), 8.68%. For the same compound, the “In Vitro Efficacy: Survival (%) of HCT116” value in the data set on HCT116 (1 nM) worked out at 81.36%; in the data set with HCT116 (10 nM) it was 0%; in the data set on HCT116 (100 nM), 0%. Also, the “In Vivo Toxicity MTD40 (ip, mg/kg) in C3H/Hej Mice” value with C3H/HeJ mice is listed as 100 mg/kg. Also, the “T (Surviving days after treatment of MTG-B mouse mammary Adenocarcinoma In C3H/Hej mice)” value in data set [1] is recorded as 17 days. The CD/Taxol in data set [1] worked out at 3.7. The compound also returned a T/C % in data set [1] of 283%.

As to `CCC1(OC(=O)COc2ccc(I)cc2)C(=O)OCc2c1cc1n(c2=O)Cc2cc3ccccc3nc2-1` (centres unmarked) [Example 000413, Camptothecin-20-Oester of 4-iodophenoxyacetic acid], the “In vitro efficacy: Survival (%) of cells line VM46” value with VM46 (1 nM) is given as 73.61%; in the data set on VM46 (10 nM), 0%. Further, the “In vitro efficacy: Survival (%) of cells line PC-3” value in the data set on PC-3 (1 nM) was 89.51%; in the data set with PC-3 (5 nM), 33.64%. Also, the “In Vitro Efficacy: Survival (%) of HCT116” value in the data set with HCT116 (1 nM) is 87.62%; in the data set on HCT116 (10 nM), 0%; in the data set on HCT116 (100 nM) it was 0%. In the data set with C3H/HeJ mice, the “In Vivo Toxicity MTD40 (ip, mg/kg) in C3H/Hej Mice” value is above 150 mg/kg. For the same compound, in data set [1], the “T (Surviving days after treatment of MTG-B mouse mammary Adenocarcinoma In C3H/Hej mice)” value was found to be 18 days. In data set [1], the CD/Taxol is 4. In data set [1], this compound displayed a T/C % of 300%.

On to `CCC1(OC(=O)COc2ccc(F)cc2)C(=O)OCc2c1cc1n(c2=O)Cc2cc3ccccc3nc2-1` (centres unmarked) [Example 000417, camptothecin-20-O-4-fluorophenoxyacetate], for which the figures for the “In vitro efficacy: Survival (%) of cells line VM46” value in the data set on VM46 (1 nM) and in the data set with VM46 (10 nM) were 83.50% and 0%, respectively. Further, the “In vitro efficacy: Survival (%) of cells line PC-3” value is listed as 97.65% with PC-3 (1 nM) and 61.85% in the data set on PC-3 (5 nM). Moreover, the “In Vitro Efficacy: Survival (%) of HCT116” value was 100% in the data set on HCT116 (1 nM), 0% in the data set on HCT116 (10 nM) and 0% in the data set with HCT116 (100 nM). Also, in the data set on C3H/HeJ mice, the “In Vivo Toxicity MTD40 (ip, mg/kg) in C3H/Hej Mice” value is above 150 mg/kg. Also, in data set [1], the “T (Surviving days after treatment of MTG-B mouse mammary Adenocarcinoma In C3H/Hej mice)” value came out at 18 days. In data set [1], the CD/Taxol is recorded as 4. Also, the T/C % in data set [1] stood at 300%.
